Laboratory results reported in patent US6737383B1, “Herbicidal oxadiazolidines” (priority 1999, dated 2004).

Key:
giant foxtail = assay: Test B pre/postemergence giant foxtail; format: in vivo, Setaria faberii
Outline: (§1)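 Herbicidal effect was estimated by eye on a ten-point control scale after plants spent twelve to sixteen days in a greenhouse following soil or foliar treatment. Foliar sprays targeted plants at one to four leaves; all doses were formulated in a non-phytotoxic solvent with surfactant.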

wild oat = assay: Test B pre/postemergence wild oat; format: in vivo, Avena fatua
Outline: as §1

purple nutsedge = assay: Test B pre/postemergence purple nutsedge; format: in vivo, Cyperus rotundus
Outline: as §1

rice = assay: Test B flood test rice; format: in vivo, Oryza sativa
Outline: (§2)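 Flood test on plants grown to the 2-leaf stage; treated plants kept in greenhouse twelve to sixteen days, then visually rated against controls on a 0 (no effect) to 10 (complete control) scale.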

pigweed = assay: Test B pre/postemergence pigweed; format: in vivo, Amaranthus retroflexus
Outline: as §1

velvetleaf = assay: Test B pre/postemergence velvetleaf; format: in vivo, Abutilon theophrasti
Outline: as §1

surinam grass = assay: Test B pre/postemergence surinam grass; format: in vivo, Brachiaria decumbens
Outline: as §1

crabgrass = assay: Test B pre/postemergence crabgrass; format: in vivo, Digitaria sanguinalis
Outline: as §1

wheat = assay: Test B pre/postemergence wheat; format: in vivo, Triticum aestivum
Outline: as §1

bamyardgrass = assay: Test B flood test barnyardgrass; format: in vivo, Echinochloa crus-galli
Outline: as §2

blackgrass = assay: Test B pre/postemergence blackgrass; format: in vivo, Alopecurus myosuroides
Outline: as §1

soybean = assay: Test B pre/postemergence soybean; format: in vivo, Glycine max
Outline: as §1

morningglory = assay: Test B pre/postemergence morningglory; format: in vivo, Ipomoea hederacea
Outline: as §1

bedstraw = assay: Test B pre/postemergence bedstraw; format: in vivo, Galium aparine
Outline: as §1

cocklebur = assay: Test B pre/postemergence cocklebur; format: in vivo, Xanthium strumarium
Outline: as §1

smallflower flatsedge = assay: Test B flood test smallflower flatsedge; format: in vivo, Cyperus difformis
Outline: as §2

[1] = Postemergence, Rate 125 g/ha, scale of 0 to 10 where 0 is no effect and 10 is complete control
[2] = Preemergence, Rate 62 g/ha, scale 0 to 10 (0 no effect, 10 complete control)
[3] = Preemergence, Rate 125 g/ha, 0 is no effect, 10 is complete control
[4] = Preemergence, Rate 250 g/ha, scale 0 to 10, 0 is no effect, 10 is complete control
[5] = Preemergence, Rate 500 g/ha, scale 0 to 10 (0 no effect, 10 complete control)
[6] = Rate 62 g/ha, Postemergence, scale of 0 to 10 where 0 is no effect and 10 is complete control
[7] = Rate 250 g/ha, Postemergence, scale 0 to 10, 0 is no effect, 10 is complete control
[8] = Rate 500 g/ha, Postemergence, scale 0 to 10
[9] = Rate 62 g/ha, headed Pre-emergence (flood test species), scale 0 to 10 (0 no effect, 10 complete control)
[10] = Rate 125 g/ha, Pre-emergence, flood test species, scale 0 to 10 where 0 is no effect and 10 is complete control
[11] = Rate 250 g/ha, headed Pre-emergence (flood test species), scale 0 to 10 (0 no effect, 10 complete control)
[12] = Rate 500 g/ha, headed Pre-emergence (flood test species), scale 0 to 10 (0 no effect, 10 complete control)

Structure (SMILES): CC(C)N(C(=O)n1oc(=O)n(C(C)(C)C)c1=O)c1ccccc1 [Compound 129]
- Giant foxtail plant response rating (giant foxtail; [1]): 6
- Giant foxtail plant response rating (giant foxtail; [2]): 7
- Giant foxtail plant response rating (0 to 10 scale) (giant foxtail; [3]): 7
- Giant foxtail plant response rating (giant foxtail; [4]): 8
- Giant foxtail plant response rating (giant foxtail; [5]): 9
- Giant foxtail plant response rating (giant foxtail; [6]): 4
- Plant response rating, Giant foxtail (giant foxtail; [7]): 9
- Giant foxtail plant response rating (giant foxtail; [8]): 9
- Wild oats plant response rating (wild oat; [1]): 0
- Wild oats plant response rating (wild oat; [2]): 3
- Wild oats plant response rating (0 to 10 scale) (wild oat; [3]): 5
- Wild oats plant response rating (wild oat; [4]): 6
- Wild oats plant response rating (wild oat; [5]): 6
- Wild oats plant response rating (wild oat; [6]): 0
- Plant response rating, Wild oats (wild oat; [7]): 2
- Wild oats plant response rating (wild oat; [8]): 2
- Nutsedge plant response rating (purple nutsedge; [1]): 0
- Nutsedge plant response rating (purple nutsedge; [2]): 0
- Nutsedge plant response rating (0 to 10 scale) (purple nutsedge; [3]): 0
- Nutsedge plant response rating (purple nutsedge; [4]): 0
- Nutsedge plant response rating (purple nutsedge; [5]): 0
- Nutsedge plant response rating (purple nutsedge; [6]): 0
- Plant response rating, Nutsedge (purple nutsedge; [7]): 0
- Nutsedge plant response rating (purple nutsedge; [8]): 0
- Rice plant response rating (rice; [9]): 0
- Rice plant response rating (rice; [10]): 0
- Rice plant response rating (rice; [11]): 8
- Plant response rating, Rice (rice; [12]): 6
- Redroot pigweed plant response rating (pigweed; [1]): 0
- Redroot pigweed plant response rating (pigweed; [2]): 0
- Redroot pigweed plant response rating (0 to 10 scale) (pigweed; [3]): 2
- Redroot pigweed plant response rating (pigweed; [4]): 2
- Redroot pigweed plant response rating (pigweed; [5]): 7
- Redroot pigweed plant response rating (pigweed; [6]): 0
- Plant response rating, Redroot pigweed (pigweed; [7]): 2
- Redroot pigweed plant response rating (pigweed; [8]): 3
- Velvetleaf plant response rating (velvetleaf; [1]): 0
- Velvetleaf plant response rating (velvetleaf; [2]): 0
- Velvetleaf plant response rating (0 to 10 scale) (velvetleaf; [3]): 0
- Velvetleaf plant response rating (velvetleaf; [4]): 4
- Velvetleaf plant response rating (velvetleaf; [5]): 6
- Velvetleaf plant response rating (velvetleaf; [6]): 0
- Plant response rating, Velvetleaf (velvetleaf; [7]): 0
- Velvetleaf plant response rating (velvetleaf; [8]): 0
- B. signalgrass plant response rating (surinam grass; [1]): 0
- B. signalgrass plant response rating (surinam grass; [2]): 0
- B. signalgrass plant response rating (0 to 10 scale) (surinam grass; [3]): 2
- B. signalgrass plant response rating (surinam grass; [5]): 7
- B. signalgrass plant response rating (surinam grass; [6]): 0
- Plant response rating, B. signalgrass (surinam grass; [7]): 4
- B. signalgrass plant response rating (surinam grass; Rate 500 g/ha, Postemergence, scale of 0 to 10 where 0 is no effect and 10 is complete control): 6
- Crabgrass plant response rating (crabgrass; [1]): 4
- Crabgrass plant response rating (crabgrass; [2]): 6
- Crabgrass plant response rating (0 to 10 scale) (crabgrass; [3]): 7
- Crabgrass plant response rating (crabgrass; [4]): 7
- Crabgrass plant response rating (crabgrass; [5]): 9
- Crabgrass plant response rating (crabgrass; [6]): 2
- Plant response rating, Crabgrass (crabgrass; [7]): 8
- Crabgrass plant response rating (crabgrass; [8]): 9
- Wheat plant response rating (wheat; [1]): 0
- Wheat plant response rating (wheat; [2]): 0
- Wheat plant response rating (0 to 10 scale) (wheat; [3]): 0
- Wheat plant response rating (wheat; [4]): 3
- Wheat plant response rating (wheat; [5]): 3
- Wheat plant response rating (wheat; [6]): 0
- Plant response rating, Wheat (wheat; [7]): 2
- Wheat plant response rating (wheat; [8]): 2
- Barnyardgrass plant response rating (bamyardgrass; [9]): 7
- Barnyardgrass plant response rating (bamyardgrass; [10]): 3
- Barnyardgrass plant response rating (bamyardgrass; [11]): 9
- Plant response rating, Barnyardgrass (bamyardgrass; [12]): 9
- Blackgrass plant response rating (blackgrass; [1]): 0
- Blackgrass plant response rating (blackgrass; [2]): 0
- Blackgrass plant response rating (0 to 10 scale) (blackgrass; [3]): 0
- Blackgrass plant response rating (blackgrass; [4]): 2
- Blackgrass plant response rating (blackgrass; [5]): 4
- Blackgrass plant response rating (blackgrass; [6]): 0
- Plant response rating, Blackgrass (blackgrass; [7]): 3
- Blackgrass plant response rating (blackgrass; [8]): 3
- Soybean plant response rating (soybean; [1]): 2
- Soybean plant response rating (soybean; [2]): 0
- Soybean plant response rating (0 to 10 scale) (soybean; [3]): 0
- Soybean plant response rating (soybean; [4]): 0
- Soybean plant response rating (soybean; [5]): 2
- Soybean plant response rating (soybean; [6]): 1
- Plant response rating, Soybean (soybean; [7]): 4
- Soybean plant response rating (soybean; [8]): 4
- Morningglory plant response rating (morningglory; [1]): 4
- Morningglory plant response rating (morningglory; [2]): 0
- Morningglory plant response rating (0 to 10 scale) (morningglory; [3]): 0
- Morningglory plant response rating (morningglory; [4]): 0
- Morningglory plant response rating (morningglory; [5]): 0
- Morningglory plant response rating (morningglory; [6]): 4
- Plant response rating, Morningglory (morningglory; [7]): 8
- Morningglory plant response rating (morningglory; [8]): 8
- Bedstraw plant response rating (bedstraw; [1]): 0
- Bedstraw plant response rating (bedstraw; [2]): 0
- Bedstraw plant response rating (0 to 10 scale) (bedstraw; [3]): 0
- Bedstraw plant response rating (bedstraw; [4]): 0
- Bedstraw plant response rating (bedstraw; [5]): 0
- Bedstraw plant response rating (bedstraw; [6]): 0
- Plant response rating, Bedstraw (bedstraw; [7]): 3
- Bedstraw plant response rating (bedstraw; Rate 500 g/ha, Postemergence, scale 0 to 10, 0 no effect, 10 complete control): 3
- Cocklebur plant response rating (cocklebur; [1]): 0
- Cocklebur plant response rating (cocklebur; [2]): 0
- Cocklebur plant response rating (0 to 10 scale) (cocklebur; [3]): 0
- Cocklebur plant response rating (cocklebur; [4]): 0
- Cocklebur plant response rating (cocklebur; [6]): 0
- Plant response rating, Cocklebur (cocklebur; [7]): 0
- Cocklebur plant response rating (cocklebur; [8]): 0
- S. Flatsedge plant response rating (smallflower flatsedge; [9]): 3
- S. Flatsedge plant response rating (smallflower flatsedge; [10]): 5
- S. Flatsedge plant response rating (smallflower flatsedge; [11]): 9
- Plant response rating, S. Flatsedge (smallflower flatsedge; [12]): 9
